Laboratory results from paper PMC5423902, “CXCL9-Derived Peptides Differentially Inhibit Neutrophil Migration In Vivo through Interference with Glycosaminoglycan Interactions” (Frontiers in Immunology, 2017).
Peptide text beside a SMILES is read from it. * marks the point of attachment. 5TAMRA = CN(C)c1ccc2c(c1)Oc1cc(N(C)C)ccc1C21OC(=O)c2cc(C(=O)*)ccc21

Experiments:
[1] = tested on: cellular GAGs on CHO cells; settings: binds dose-dependently to GAGs on CHO cells; cited from earlier work
[2] = tested on: CXCL8(1-77) binding to heparin; test: Competition with CXCL8 for binding to immobilized heparin (ELISA-like); parameters: species or system human; settings: heparin-coated plates, n ≥ 4
Method: (§1) The ability of the COOH-terminal peptides of CXCL9 and CXCL4 to compete for GAG binding with the inflammatory chemokines CXCL8 and CXCL1 was evaluated on heparin-binding plates [BD Biosciences or produced by Jason Whittle (School of Engineering/Future Industries Institute, University of South Australia, Australia)] ([42], [47]). In brief, GAGs (heparin, HS, and CS; Iduron; 25 µg/ml) were coated overnight at room temperature. Dilutions of COOH-terminal CXCL9 or CXCL4 peptide combined with recombinant human CXCL8(1-77) or recombinant murine CXCL1(1-72) (Peprotech, Rocky Hill, NJ, USA) were added in duplicate and incubated for 2 h at 37°C. Subsequently, bound CXCL8 or CXCL1 was detected with biotinylated polyclonal rabbit anti-human CXCL8 or biotinylated polyclonal goat anti-mouse CXCL1 (Peprotech) and horse radish peroxidase-labeled streptavidin. Finally, the peroxidase activity was quantified at 450 nm.
(§2) Figure 3 CXCL9(74-93) competes with CXCL8 for binding to heparin, heparan sulfate (HS), and cellular glycosaminoglycans (GAGs). Competition between CXCL8 and COOH-terminal CXCL9 or CXCL4 peptides for binding to immobilized heparin (A) or HS (B) and to Chinese hamster ovary (CHO) cells (C) was performed. […] Bound CXCL8 was detected with biotinylated anti-human CXCL8 antibodies. (C) Binding of NH2-terminally biotinylated CXCL8(1-77) (300 nM) to CHO cells in the presence or absence of an excess CXCL9 peptide was detected by streptavidin-allophycocyanin and flow cytometry. The mean (± SEM) percentage inhibition of binding of CXCL8(1-77) to heparin, HS or cellular GAGs is indicated on the y-axis (n ≥ 4). Statistical comparison of the different competitors with CXCL9(74–103) was performed using the Mann–Whitney U-test (*p < 0.05).

[3] = tested on: CXCL8-induced neutrophil migration; settings: cited from earlier work
[4] = tested on: CXCL1(1-72) binding to heparan sulfate (HS); test: Competition with CXCL1 for binding to immobilized HS; parameters: species or system murine; settings: n ≥ 3; Figure 6A
Method: as §1
Competition between CXCL1 and COOH-terminal CXCL9 peptides for binding to immobilized heparan sulfate (HS) (A) and chondroitin sulfate (CS) (B) was performed. […] Bound CXCL1 was detected with biotinylated polyclonal goat anti-mouse CXCL1 antibodies. The mean (± SEM) percentage inhibition of CXCL1 binding to GAGs is indicated on the y-axis (n ≥ 3). Statistical comparison of the different competitors with CXCL9(74–103) was performed using the Mann–Whitney U-test.

[5] = tested on: CXCL8-induced neutrophil migration; test: CXCL8-induced neutrophil migration to the peritoneal cavity; assay type: in vivo, mouse (NMRI); settings: 108 µg peptide i.p.; data not shown
Method: In vivo neutrophil extravasation to the peritoneal or the knee cavity was examined, respectively, by intraperitoneal or intra-articular injection, of endotoxin-free recombinant CXCL8(1-77) (PeproTech) or vehicle (PBS) in female NMRI or C57BL/6 mice, as described previously ([42], [48]). Simultaneously, synthetic CXCL9 peptide was co-injected either intraperitoneally or injected intravenously. After 2 h (peritoneal cavity) or 3 h (knee cavity), mice were sacrificed. The peritoneal cavity was washed with saline enriched with 2% FCS and 20 U/ml heparin and total leukocyte counts were determined. For the preparation of cytospins, 10^5 cells were used and absolute number and percentage of neutrophils in the lavages were determined in duplicate independently by two researchers by differential microscopic counting. The cells present in the tibiofemoral articulation were harvested by washing the cavity with 10 µl of 3% (w/v) bovine serum albumin in PBS and diluted in 90 µl of 3% (w/v) bovine serum albumin in PBS. The number of total leukocytes was determined by counting leukocytes in a Neubauer chamber after staining with Turk’s solution. Differential counts were obtained from cytospin preparations by evaluating the percentage of each leukocyte type on a slide stained with May-Grunwald-Giemsa solution.
Figure 4 The COOH-terminal peptides of CXCL9 inhibit CXCL8-induced neutrophil migration to the peritoneal cavity. CXCL8(1-77) was injected into the peritoneal cavity of NMRI mice (n ≥ 5) simultaneously with an intraperitoneal (A) or intravenous (B,C) injection of CXCL9(74-103) or CXCL9(74–93). The number of neutrophils in the peritoneal cavity, 2 h post injection, were evaluated by differentially counting the leukocyte subtypes on Hemacolor-stained cytospins. The neutrophil counts are shown for every individual mouse, and the horizontal lines denote the median percentage. To detect statistically significant differences, the Mann–Whitney U-test was carried out (*p < 0.05; **p < 0.01; ***p < 0.005).

[6] = tested on: CXCL8(1-77) binding to heparan sulfate (HS); test: Competition with CXCL8 for binding to immobilized HS (ELISA-like); parameters: species or system human; settings: CXCL8(1-77) 0-300 nM, n ≥ 4, Figure 3B
Method: as §1, §2

[7] = tested on: HS expression on CHO cells; test: HS expression on CHO cells after NaClO3 treatment, flow cytometry; assay type: cell-based, Chinese hamster; settings: 100 mM NaClO3, 24 h; anti-HS antibody; data not shown
Method: Chinese hamster ovary (CHO) cells were a gift from M. Parmentier (ULB, Brussels, Belgium) and were cultured in Ham’s F-12 medium (with L-glutamine; Lonza, Belgium) supplemented with 10% fetal calf serum (FCS) and 0.8% G418 (Geneticin®; Life Technologies), as described ([44]). To inhibit sulfation of cellular GAGs, CHO cells were cultured in the presence of 100 mM sodium chlorate (NaClO3) for 24 h as previously described ([42]).
Binding of biotinylated CXCL9(74-103) and CXCL9(74-93) to CHO cells was assessed by flow cytometry as recently described ([42]). Briefly, cells were detached with phosphate-buffered saline (PBS) with 0.02% ethylenediaminetetraacetic acid (EDTA) and incubated with NH2-terminally biotinylated peptides. Subsequently, cells were incubated with streptavidin-allophycocyanin (BD Biosciences, San Jose, CA, USA) and analyzed by flow cytometry (FACSCalibur, BD Biosciences). To confirm inhibition of sulfation of cellular GAGs, part of the cells were stained with a mouse monoclonal anti-human HS antibody (Immunosource, Schilde, Belgium) and a secondary phycoerythrin-labeled goat anti-mouse antibody (BD Biosciences). Finally, cells were analyzed by flow cytometry. Analogously, binding of 100 nM biotinylated CXCL8 in the presence or absence of CXCL9(74-103) or CXCL9(74-93) was compared on CHO cells.

[8] = Plasma level of intravenously injected fluorescent CXCL9(74-103); assay type: in vivo, mouse; settings: spectrofluorometric
Description: Intravenously injected fluorescent CXCL9(74-103) was detected in plasma after different time intervals by spectrofluorometric analysis and quantified against murine plasma spiked with known concentrations of the fluorescent peptide.

## 47NGRKICLDLQAPLYKKIIKKLLES70 [CXCL4(47-70), COOH-terminal peptide of CXCL4, reference compound]
[1]
  affinity for GAGs on CHO cells relative to CXCL9(74-103): about fivefold lower affinity than CXCL9(74-103)
[2]; CXCL8(1-77) 0-300 nM, 2 h at 37°C, anti-CXCL8 detection, 450 nm, Figure 3A
  molar excess over CXCL8 giving 50% reduction of CXCL8 binding to heparin: more than 100 fold molar excess
[2]; Figure 3
  competition with CXCL8 for heparin binding (relative potency): less potent competitor of CXCL8 binding than the CXCL9 peptides

## 86KKVLKVRKSQRSRQKKTT103 [CXCL9(86-103), COOH-terminal peptide of CXCL9]
[3]
  inhibition of chemotactic activity of CXCL8 in vivo: unable to inhibit chemotactic activity of CXCL8 in vivo
[4]
  competition for CXCL1 binding to HS: not able to inhibit the interaction between CXCL1 and HS
[5]
  inhibition of CXCL8-induced neutrophil migration to peritoneal cavity: did not inhibit CXCL8-induced neutrophil migration
[6]
  inhibition of CXCL8 binding on HS-coated plates: poorly competing

## [Na+].[O-][Cl+2]([O-])[O-] [NaClO3, sodium chlorate]
[7]
  reduction of HS expression on CHO cells: 71.4%

## CC(C)C[C@H](NC(=O)[C@@H](NC(=O)[C@H](CCCCN)NC(=O)[C@H](CCCCN)NC(=O)[C@H](CCCCN)NC(=O)[C@H](CCC(N)=O)NC(=O)[C@H](Cc1c[nH]cn1)NC(=O)[C@H](CCCCN)NC(=O)[C@H](CCCCN)NC(=O)CNC(=O)[C@H](CC(N)=O)NC(=O)[C@H](CCCCN)NC(=O)[C@H](CCC(N)=O)NC(=O)[C@H](CCCCN)NC(=O)[C@H](CCCCN)NC(=O)[C@H](CCCCN)NC(=O)c1ccc2c(c1)C(=O)OC21c2ccc(N(C)C)cc2Oc2cc(N(C)C)ccc21)C(C)C)C(=O)N[C@@H](CCCCN)C(=O)N[C@H](C(=O)N[C@@H](CCCNC(=N)N)C(=O)N[C@@H](CCCCN)C(=O)N[C@@H](CO)C(=O)N[C@@H](CCC(N)=O)C(=O)N[C@@H](CCCNC(=N)N)C(=O)N[C@@H](CO)C(=O)N[C@@H](CCCNC(=N)N)C(=O)N[C@@H](CCC(N)=O)C(=O)N[C@@H](CCCCN)C(=O)N[C@@H](CCCCN)C(=O)N[C@H](C(=O)N[C@H](C(=O)O)[C@@H](C)O)[C@@H](C)O)C(C)C [TAMRA-CXCL9(74-103)] (5TAMRA-KKKQKNGKKHQKKKVLKVRKSQRSRQKKTT-OH)
[8]; 5 min after i.v. injection, assuming a blood volume of 3 ml
  fraction of injected amount detected in plasma: 3%
[8]; mouse, plasma, iv, 5 min after i.v. injection, read-out: plasma concentration
  level at 5 min: 2 µg/mL
[8]; mouse, plasma, iv, 1 h after i.v. injection, no circulating peptide detected, read-out: plasma concentration
  level at 1 h: < 0.24 µg/mL
